The text below walks through data of article PMC12677599 (Advanced Science, 2025).

“And” between values parts separate entries of the source, which are not always exact repeats. Identical values can stand only once. Like-named read-outs stand apart in the source and are kept apart here. Where a SMILES comes first, the peptide text is derived from it. [ ]: non-standard residue; d: D form. The star is where a group is joined. PEG4 = NCCOCCOCCOCCOCCC(=O)O; Piperidide = C1CCN(*)CC1

Usually IC50 stands for the midpoint of a concentration-inhibition curve.

One series relates to HEK-293 normal cell line. Kind of series: cells. Type of series: cell-based. On the procedure: (§1) MTT assay was conducted as previously described.^[ [44] ^] Tumor cell lines (NCI‐H460, NCI‐H838, HT‐1080, MCF‐7, PC‐3, U‐251‐MG, and U‐87 MG) were seeded in 96‐well plates at a density of 8000 cells per well in a volume of 100 µL and cultured for 24 h. Normal cell lines (HaCaT, HMEC‐1, MRC‐5, and HEK‐293) were seeded in 96‐well plates at a density of 10 000 cells per well in a volume of 100 µL and cultured for 48 h. After that, only tumor cell lines were starved with 100 µL of SFM for a further 4–6 h. Subsequently, cells were treated with 100 µL of compound solutions with different concentrations for 24 h. Cells treated with SFM and 0.5% DMSO in SFM served as blank control and growth control, respectively. Ten µL of MTT solution (5 mg mL^−1) was added to each well, followed by an additional incubation period of 2 h for tumor cells and 4 h for normal cells. Finally, the solvent in each well was swapped with 100 µL of DMSO to dissolve the formazan crystals. The absorbance was measured by the plate reader at 570 nm.
(§2) The cell viability was calculated (1) Cellviability%=ODSamplegroup−ODBlank/ODGrowthgroup−ODBlank×100%

A further series concerns H460 cell line. In words: cells. Type of series: cell-based. On the procedure: as §1, §2
The test system of a further series is erythrocytes. Type of series: cell-based. The note with it: red cells of horse, 2 h. On the procedure:
Defibrinated horse blood (1 mL) was washed 3 times with 0.9% NaCl solution to remove plasma and then resuspended in 20 mL of 0.9% NaCl solution to obtain a red blood cell (RBC) suspension. Aliquots of the RBC suspension (100 µL) were incubated with 100 µL of compound solutions at concentrations ranging from 100 to 1.5625 µM (twofold serial dilution) for 2 h at 37 °C. RBCs treated with 0.9% NaCl solution and 1% Triton X‐100 solution served as blank and positive controls, respectively. Subsequently, the samples were centrifuged at 900 × g for 10 min, and the absorbance of the supernatant was measured at 570 nm.
The hemolysis ratio was calculated as (2) Hemolysis%=ODSamplegroup−ODBlank/ODPositivegroup−ODBlank×100%

A short description of series [1]: 50% human serum (from human male AB plasma, US origin; centrifuged to remove the lipid content). The note with it: 37 °C, up to 24 h.

`CC[C@H](C)[C@H](NC(=O)[C@H](CCCCN)NC(=O)[C@@H]1CCCN1C(=O)[C@H](CC(C)C)NC(=O)[C@@H](NC(=O)[C@H](CO)NC(=O)[C@H](CCC(=O)N1CCCCC1)NC(=O)[C@H](CC(C)C)NC(=O)[C@H](CC(=O)O)NC(=O)[C@H](CC(=O)O)NC(=O)[C@H](Cc1ccccc1)NC(=O)[C@@H](NC(=O)[C@H](CCCCN)NC(=O)[C@@H]1CCCN1C(=O)[C@H](Cc1ccccc1)NC(=O)[C@H](Cc1ccccc1)NC(=O)[C@H](CCC(=O)O)NC(=O)[C@H](C)N)[C@@H](C)CC)[C@@H](C)CC)C(=O)N[C@@H](CC(C)C)C(N)=O` [239-1] (H-AEFFPKIFDDLE(Piperidide)SILPKIL-NH2): the results for the IC50 in the series on HEK-293 normal cell line (24 h) and in the series with H460 cell line (24 h) were above 100 µM and 88.2 µM, respectively. Also, the “HC10 (concentration causing 10% of erythrocytes lysis)” value in the series with erythrocytes is given as 97.64 µM. `CC(=O)O[C@H]1C(=O)[C@@]2(C)[C@H]([C@H](OC(=O)c3ccccc3)[C@]3(O)C[C@H](OC(=O)[C@H](O)[C@@H](NC(=O)c4ccccc4)c4ccccc4)C(C)=C1C3(C)C)[C@]1(OC(C)=O)CO[C@@H]1C[C@@H]2O` [Paclitaxel, paclitaxel, reference compound]: the IC50 was below 7 µM in the series with HEK-293 normal cell line (Homo sapiens, HEK293, Table S11, MTT, read-out: IC50 Value of chemotherapeutics, HEK-293) and 220 ± 65 µM in the series with H460 cell line (Homo sapiens, NCI-H460, Table S11, MTT, read-out: IC50 Value of chemotherapeutics, H460). In the case of ATFFPKIFDDLE(PIP)SILPKIL-NH2, in series [1], the cleaved bond entry is listed as “F-F, major”. As to `CC[C@H](C)[C@H](NC(=O)[C@H](CCCCN)NC(=O)[C@@H]1CCCN1C(=O)[C@H](CC(C)C)NC(=O)[C@@H](NC(=O)[C@H](CO)NC(=O)[C@H](CCC(=O)N1CCCCC1)NC(=O)[C@H](CC(C)C)NC(=O)[C@H](CC(=O)O)NC(=O)[C@H](CC(=O)O)NC(=O)[C@H](Cc1ccccc1)NC(=O)[C@@H](NC(=O)[C@H](CCCCN)NC(=O)[C@@H]1CCCN1C(=O)[C@H](Cc1ccccc1)NC(=O)[C@@H](N)Cc1ccccc1)[C@@H](C)CC)[C@@H](C)CC)C(=O)N[C@@H](CC(C)C)C(=O)NCC(=O)N1CCC[C@H]1C(=O)N[C@@H](CC(C)C)C(=O)NCC(=O)N[C@@H](CC(C)C)C(=O)N[C@@H](C)C(=O)NCC(=O)NCCOCCOCCOCCOCCC(=O)NCCOCCOCCOCCOCCC(N)=O` [compound 207] (H-FFPKIFDDLE(Piperidide)SILPKILGPLGLAG[PEG4][PEG4]-NH2), the results for the IC50 with HEK-293 normal cell line (24 h) and in the series with H460 cell line (24 h) were 44.2 ± 3.21 µM and 28 ± 1.59 µM, respectively. Moreover, the “HC10 (concentration causing 10% of erythrocytes lysis)” value with erythrocytes was 69.26 µM. In the case of `N.N.[Cl][Pt][Cl]` [Cisplatin, cisplatin, reference compound], the IC50 with HEK-293 normal cell line (Table S11, MTT, read-out: IC50 Value of chemotherapeutics, HEK-293) stood at 162 ± 18.8 µM; in the series with H460 cell line (Table S11, MTT, read-out: IC50 Value of chemotherapeutics, H460) it was 203 ± 26.9 µM.

For AEFFPKIFDDLE(PIP)SILPKIL-NH2, in series [1], the cleaved bond result is “Ala-E”. Consider `CC[C@H](C)[C@H](NC(=O)[C@H](CCCCN)NC(=O)[C@@H]1CCCN1C(=O)[C@H](CC(C)C)NC(=O)[C@@H](NC(=O)[C@H](CO)NC(=O)[C@H](CCC(=O)N1CCCCC1)NC(=O)[C@H](CC(C)C)NC(=O)[C@H](CC(=O)O)NC(=O)[C@H](CC(=O)O)NC(=O)[C@H](Cc1ccccc1)NC(=O)[C@@H](NC(=O)[C@H](CCCCN)NC(=O)[C@@H]1CCCN1C(=O)[C@H](Cc1ccccc1)NC(=O)[C@H](Cc1ccccc1)NC(=O)[C@H](CCCNC(=N)N)NC(=O)[C@H](C)N)[C@@H](C)CC)[C@@H](C)CC)C(=O)N[C@@H](CC(C)C)C(N)=O` [239-3] (H-ARFFPKIFDDLE(Piperidide)SILPKIL-NH2), for which the IC50 in the series with HEK-293 normal cell line (24 h) amounted to 15 ± 1.38 µM; in the series on H460 cell line (24 h), 14.7 ± 1.22 µM. The “HC10 (concentration causing 10% of erythrocytes lysis)” value in the series on erythrocytes is given as 24.72 µM. For the compound `CC[C@H](C)[C@H](NC(=O)[C@H](CCCCN)NC(=O)[C@@H]1CCCN1C(=O)[C@H](CC(C)C)NC(=O)[C@@H](NC(=O)[C@H](CO)NC(=O)[C@H](CCC(=O)N1CCCCC1)NC(=O)[C@H](CC(C)C)NC(=O)[C@H](CC(=O)O)NC(=O)[C@H](CC(=O)O)NC(=O)[C@H](Cc1ccccc1)NC(=O)[C@@H](NC(=O)[C@H](CCCCN)NC(=O)[C@@H]1CCCN1C(=O)[C@H](Cc1ccccc1)NC(=O)[C@@H](N)Cc1ccccc1)[C@@H](C)CC)[C@@H](C)CC)C(=O)N[C@@H](CC(C)C)C(=O)NCC(=O)NCC(=O)NCC(=O)NCC(=O)NCC(=O)NCC(=O)NCC(=O)NCCOCCOCCOCCOCCC(=O)NCCOCCOCCOCCOCCC(=O)NCCOCCOCCOCCOCCC(=O)NCCOCCOCCOCCOCCC(N)=O` [compound 288] (H-FFPKIFDDLE(Piperidide)SILPKILGGGGGGG[PEG4][PEG4][PEG4][PEG4]-NH2), the IC50 in the series on HEK-293 normal cell line (24 h) and in the series with H460 cell line (24 h) was above 100 µM in each case. Further, the “HC10 (concentration causing 10% of erythrocytes lysis)” value in the series on erythrocytes was above 100 µM.

Take FFPKIFDDLE(PIP)SILPKIL-NH2: in series [1], the cleaved bond result is on record as “Phe1-F”. “AKFFPKIFDDLE(PIP)SILPKILGPLGLAG-(PEG4)6-NH2”: the not cleaved entry in series [1] is “nearly 100% remaining ratio after 24 h”. Regarding `CC[C@H](C)[C@H](NC(=O)[C@H](CCCCN)NC(=O)[C@@H]1CCCN1C(=O)[C@H](CC(C)C)NC(=O)[C@@H](NC(=O)[C@H](CO)NC(=O)[C@H](CCC(=O)N1CCCCC1)NC(=O)[C@H](CC(C)C)NC(=O)[C@H](CC(=O)O)NC(=O)[C@H](CC(=O)O)NC(=O)[C@H](Cc1ccccc1)NC(=O)[C@@H](NC(=O)[C@H](CCCCN)NC(=O)[C@@H]1CCCN1C(=O)[C@H](Cc1ccccc1)NC(=O)[C@H](Cc1ccccc1)NC(=O)[C@H](CCCCN)NC(=O)[C@H](C)N)[C@@H](C)CC)[C@@H](C)CC)C(=O)N[C@@H](CC(C)C)C(N)=O` [239-4] (H-AKFFPKIFDDLE(Piperidide)SILPKIL-NH2), the values for the IC50 with HEK-293 normal cell line (24 h) and in the series with H460 cell line (24 h) were 31.5 ± 4.28 µM and 22.2 ± 1.06 µM, respectively. Also, the “HC10 (concentration causing 10% of erythrocytes lysis)” value with erythrocytes turned out to be 25.61 µM. Regarding ARFFPKIFDDLE(PIP)SILPKIL-NH2, in series [1], the cleaved bond entry is on record as “R-F, major”. Take AKFFPKIFDDLE(PIP)SILPKIL-NH2: the cleaved bond entry in series [1] is listed as “Ala-K”. On to `O=c1[nH]cc(F)c(=O)[nH]1` [5-Fluorouracil, 5-fluorouracil, reference compound], for which the IC50 in the series on HEK-293 normal cell line (Homo sapiens, HEK293, read-out: IC50 Value of chemotherapeutics, HEK-293) came out at 430 ± 40.2 µM; with H460 cell line (Homo sapiens, NCI-H460, read-out: IC50 Value of chemotherapeutics, H460), 432 ± 61.2 µM. Regarding AK(Ac)FFPKIFDDLE(PIP)SILPKIL-NH2, the fragment found in series [1] is 239-4-Ac-1 FPKIFDDLE(PIP)SILPKIL-NH2 and 239-4-Ac-2 FFPKIFDDLE(PIP)SILPKIL-NH2.

In the case of `CC[C@H](C)[C@H](NC(=O)[C@H](CCCCN)NC(=O)[C@@H]1CCCN1C(=O)[C@H](CC(C)C)NC(=O)[C@@H](NC(=O)[C@H](CO)NC(=O)[C@H](CCC(=O)N1CCCCC1)NC(=O)[C@H](CC(C)C)NC(=O)[C@H](CC(=O)O)NC(=O)[C@H](CC(=O)O)NC(=O)[C@H](Cc1ccccc1)NC(=O)[C@@H](NC(=O)[C@H](CCCCN)NC(=O)[C@@H]1CCCN1C(=O)[C@H](Cc1ccccc1)NC(=O)[C@@H](N)Cc1ccccc1)[C@@H](C)CC)[C@@H](C)CC)C(=O)N[C@@H](CC(C)C)C(=O)NCC(=O)N1CCC[C@H]1C(=O)N[C@@H](CC(C)C)C(=O)NCC(=O)N[C@@H](CC(C)C)C(=O)N[C@@H](C)C(=O)NCC(=O)NCCOCCOCCOCCOCCC(N)=O` [compound 204] (H-FFPKIFDDLE(Piperidide)SILPKILGPLGLAG[PEG4]-NH2), the figures for the IC50 with HEK-293 normal cell line (24 h) and in the series on H460 cell line (24 h) were 34.1 ± 3.41 µM and 20 ± 1.05 µM, respectively. Also, in the series on erythrocytes, the “HC10 (concentration causing 10% of erythrocytes lysis)” value amounted to 46.10 µM.

Regarding “FFPKIFDDLE(PIP)SILPKILGPLGLAG-(PEG4)4-NH2”, in series [1], the cleaved bond entry is given as “Phe1-F”.

For the compound `CC[C@H](C)[C@H](NC(=O)[C@H](CCCCN)NC(=O)[C@@H]1CCCN1C(=O)[C@H](CC(C)C)NC(=O)[C@@H](NC(=O)[C@H](CO)NC(=O)[C@H](CCC(=O)N1CCCCC1)NC(=O)[C@H](CC(C)C)NC(=O)[C@H](CC(=O)O)NC(=O)[C@H](CC(=O)O)NC(=O)[C@H](Cc1ccccc1)NC(=O)[C@@H](NC(=O)[C@H](CCCCN)NC(=O)[C@@H]1CCCN1C(=O)[C@H](Cc1ccccc1)NC(=O)[C@H](Cc1ccccc1)NC(=O)[C@@H](NC(=O)[C@H](C)N)[C@@H](C)O)[C@@H](C)CC)[C@@H](C)CC)C(=O)N[C@@H](CC(C)C)C(N)=O` [239-2] (H-ATFFPKIFDDLE(Piperidide)SILPKIL-NH2), the results for the IC50 with HEK-293 normal cell line (24 h) and with H460 cell line (24 h) were 44.8 ± 4.06 µM and 36.8 ± 3.25 µM, respectively. Also, the “HC10 (concentration causing 10% of erythrocytes lysis)” value in the series on erythrocytes amounted to 57.04 µM.
